From ChEMBL document CHEMBL1909046, “DrugMatrix in vitro pharmacology data”

Legend:
[1] = DRUGMATRIX: Sodium/nucleoside co-transporter radioligand binding (ligand: nitrobenzylthioinosine); type: cell membranes, Cavia porcellus, Dunkin-Hartley, Cerebral cortex, Membrane; settings: Not Active = under 50% inhibition at 10 µM
[2] = target: T1, Alpha-1B adrenergic receptor (Rattus norvegicus, UniProt P15823); test: DRUGMATRIX: Alpha-1B adrenergic receptor radioligand binding (ligand: prazosin); type: cell membranes, Wistar, Liver, Membrane; settings: Not Active = under 50% inhibition at 10 µM
T1 sequence (P15823 whole entry): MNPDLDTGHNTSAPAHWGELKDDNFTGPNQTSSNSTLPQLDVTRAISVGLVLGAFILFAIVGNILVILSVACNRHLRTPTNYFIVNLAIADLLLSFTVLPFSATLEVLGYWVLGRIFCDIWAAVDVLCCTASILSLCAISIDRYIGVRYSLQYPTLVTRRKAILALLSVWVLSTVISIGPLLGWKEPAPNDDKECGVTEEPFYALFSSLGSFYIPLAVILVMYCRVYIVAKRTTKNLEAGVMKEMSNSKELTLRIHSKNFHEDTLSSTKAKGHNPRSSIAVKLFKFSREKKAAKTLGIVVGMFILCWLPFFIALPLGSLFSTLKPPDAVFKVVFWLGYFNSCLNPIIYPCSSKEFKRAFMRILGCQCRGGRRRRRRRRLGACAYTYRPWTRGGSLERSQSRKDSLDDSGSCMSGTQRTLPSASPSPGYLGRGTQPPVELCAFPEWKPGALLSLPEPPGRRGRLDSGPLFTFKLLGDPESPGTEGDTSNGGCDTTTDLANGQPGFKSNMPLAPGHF

[3] = target: Vascular endothelial growth factor receptor 1 (Homo sapiens, UniProt P17948); type: cell-based; settings: huvec; note: in other assays of this panel Not Active means under 50% inhibition at 10 µM
[4] = target: Vasopressin V1a receptor (Homo sapiens, UniProt P37288); type: cell membranes, Membrane; settings: hek293; note: in other assays of this panel Not Active means under 50% inhibition at 10 µM
[5] = target: Melanocortin receptor 5 (Homo sapiens, UniProt P33032); type: cell membranes, HEK293, Membrane; settings: hek293; note: in other assays of this panel Not Active means under 50% inhibition at 10 µM
[6] = target: cGMP-specific 3',5'-cyclic phosphodiesterase (Homo sapiens, UniProt O76074); test: DRUGMATRIX: Phosphodiesterase PDE5 enzyme inhibition (substrate: [3H]cGMP + cGMP); type: tissue-based; settings: platelet; Not Active = under 50% inhibition at 10 µM
[7] = target: T2, Neutrophil elastase (Homo sapiens, UniProt P08246); type: tissue-based;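 note: inhibition of neutrophil elastase enzyme activity, measured with a p-nitroanilide-linked peptide substrate; in other assays of this panel Not Active means under 50% inhibition at 10 µM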
T2 sequence (P08246 whole entry): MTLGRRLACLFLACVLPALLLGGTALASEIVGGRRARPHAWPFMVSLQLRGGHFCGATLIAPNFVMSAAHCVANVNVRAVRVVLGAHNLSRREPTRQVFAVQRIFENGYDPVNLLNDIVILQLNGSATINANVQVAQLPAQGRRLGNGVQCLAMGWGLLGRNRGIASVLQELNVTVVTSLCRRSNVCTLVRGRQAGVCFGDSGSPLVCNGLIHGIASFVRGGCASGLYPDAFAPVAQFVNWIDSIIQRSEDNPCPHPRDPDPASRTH

[8] = target: T3, Receptor-type tyrosine-protein phosphatase C (Homo sapiens, UniProt P08575); set-up: species or system Escherichia coli
T3 sequence (P08575 whole entry): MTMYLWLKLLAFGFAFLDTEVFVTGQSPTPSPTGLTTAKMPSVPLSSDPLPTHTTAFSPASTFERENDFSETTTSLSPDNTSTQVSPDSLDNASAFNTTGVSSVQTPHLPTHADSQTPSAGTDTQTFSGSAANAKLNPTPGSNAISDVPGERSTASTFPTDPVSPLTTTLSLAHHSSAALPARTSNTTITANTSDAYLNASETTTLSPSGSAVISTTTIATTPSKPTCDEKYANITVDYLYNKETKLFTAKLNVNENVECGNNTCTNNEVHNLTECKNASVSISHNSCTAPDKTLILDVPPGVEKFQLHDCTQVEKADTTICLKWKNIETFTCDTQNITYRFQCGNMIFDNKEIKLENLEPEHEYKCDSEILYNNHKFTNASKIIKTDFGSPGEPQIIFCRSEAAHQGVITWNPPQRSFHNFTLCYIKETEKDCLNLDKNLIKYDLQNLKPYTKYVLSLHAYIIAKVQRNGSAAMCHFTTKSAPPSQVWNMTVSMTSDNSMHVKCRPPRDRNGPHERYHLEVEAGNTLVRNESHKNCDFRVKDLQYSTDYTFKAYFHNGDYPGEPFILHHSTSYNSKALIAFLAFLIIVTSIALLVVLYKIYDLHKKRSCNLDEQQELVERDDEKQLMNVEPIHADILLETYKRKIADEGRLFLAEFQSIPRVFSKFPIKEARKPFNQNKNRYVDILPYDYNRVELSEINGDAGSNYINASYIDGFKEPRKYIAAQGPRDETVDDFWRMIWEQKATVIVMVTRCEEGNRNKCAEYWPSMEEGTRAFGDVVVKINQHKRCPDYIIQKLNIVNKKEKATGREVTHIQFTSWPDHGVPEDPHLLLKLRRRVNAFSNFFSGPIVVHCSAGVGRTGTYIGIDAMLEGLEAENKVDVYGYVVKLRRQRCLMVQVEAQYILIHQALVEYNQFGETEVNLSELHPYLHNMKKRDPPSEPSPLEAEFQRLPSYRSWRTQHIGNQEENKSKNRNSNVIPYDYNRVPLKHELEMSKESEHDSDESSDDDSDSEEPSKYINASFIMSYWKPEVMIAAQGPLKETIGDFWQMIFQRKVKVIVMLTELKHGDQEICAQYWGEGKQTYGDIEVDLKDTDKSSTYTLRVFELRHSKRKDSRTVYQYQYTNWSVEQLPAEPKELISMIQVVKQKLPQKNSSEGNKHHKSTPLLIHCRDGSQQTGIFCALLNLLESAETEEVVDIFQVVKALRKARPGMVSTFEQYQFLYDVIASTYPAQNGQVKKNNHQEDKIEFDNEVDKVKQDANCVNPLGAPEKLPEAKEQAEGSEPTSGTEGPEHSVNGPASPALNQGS

Sequence of Vascular endothelial growth factor receptor 1 (P17948 whole entry): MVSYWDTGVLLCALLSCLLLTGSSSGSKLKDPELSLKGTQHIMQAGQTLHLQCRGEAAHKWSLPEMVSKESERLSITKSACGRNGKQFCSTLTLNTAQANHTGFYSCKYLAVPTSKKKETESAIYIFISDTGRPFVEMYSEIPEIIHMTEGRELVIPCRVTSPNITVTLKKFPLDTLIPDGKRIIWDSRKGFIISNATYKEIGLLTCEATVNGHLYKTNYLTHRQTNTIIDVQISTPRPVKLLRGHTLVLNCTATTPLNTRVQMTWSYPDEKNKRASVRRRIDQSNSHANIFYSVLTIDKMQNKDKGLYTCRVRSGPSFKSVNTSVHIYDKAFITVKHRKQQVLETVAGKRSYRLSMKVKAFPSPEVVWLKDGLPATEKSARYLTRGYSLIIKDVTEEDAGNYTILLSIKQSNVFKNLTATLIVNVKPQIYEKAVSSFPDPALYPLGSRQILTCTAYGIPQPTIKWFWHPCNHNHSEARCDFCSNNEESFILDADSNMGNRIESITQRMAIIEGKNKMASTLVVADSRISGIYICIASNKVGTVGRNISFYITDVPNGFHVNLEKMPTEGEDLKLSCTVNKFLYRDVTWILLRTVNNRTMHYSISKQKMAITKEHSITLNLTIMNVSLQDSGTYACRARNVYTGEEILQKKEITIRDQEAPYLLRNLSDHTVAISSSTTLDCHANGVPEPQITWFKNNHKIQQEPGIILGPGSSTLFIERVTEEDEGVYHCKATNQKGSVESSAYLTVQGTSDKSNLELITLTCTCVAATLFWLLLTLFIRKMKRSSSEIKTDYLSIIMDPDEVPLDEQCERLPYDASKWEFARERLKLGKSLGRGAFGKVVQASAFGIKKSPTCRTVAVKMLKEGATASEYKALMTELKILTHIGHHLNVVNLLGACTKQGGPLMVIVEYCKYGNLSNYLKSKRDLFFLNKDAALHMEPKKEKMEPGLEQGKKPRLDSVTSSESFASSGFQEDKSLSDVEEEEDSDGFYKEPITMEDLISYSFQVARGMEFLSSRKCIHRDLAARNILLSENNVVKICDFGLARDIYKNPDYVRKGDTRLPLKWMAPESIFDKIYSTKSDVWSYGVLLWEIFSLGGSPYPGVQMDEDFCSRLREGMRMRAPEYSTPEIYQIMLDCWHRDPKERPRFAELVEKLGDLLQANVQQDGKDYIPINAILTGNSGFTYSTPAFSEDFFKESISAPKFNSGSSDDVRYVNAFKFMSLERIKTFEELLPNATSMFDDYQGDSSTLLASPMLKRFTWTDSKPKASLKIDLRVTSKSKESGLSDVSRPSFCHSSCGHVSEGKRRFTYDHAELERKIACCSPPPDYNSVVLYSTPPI
Sequence of Melanocortin receptor 5 (P33032 whole entry): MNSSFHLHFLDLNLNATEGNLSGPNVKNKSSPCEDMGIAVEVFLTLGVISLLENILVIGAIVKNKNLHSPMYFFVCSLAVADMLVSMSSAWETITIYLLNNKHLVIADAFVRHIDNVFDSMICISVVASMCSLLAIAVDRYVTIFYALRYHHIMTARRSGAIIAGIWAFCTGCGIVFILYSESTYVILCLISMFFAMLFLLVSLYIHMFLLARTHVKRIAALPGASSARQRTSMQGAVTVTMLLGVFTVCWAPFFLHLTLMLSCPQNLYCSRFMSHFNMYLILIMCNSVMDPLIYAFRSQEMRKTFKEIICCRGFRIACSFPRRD
Sequence of Vasopressin V1a receptor (P37288 whole entry): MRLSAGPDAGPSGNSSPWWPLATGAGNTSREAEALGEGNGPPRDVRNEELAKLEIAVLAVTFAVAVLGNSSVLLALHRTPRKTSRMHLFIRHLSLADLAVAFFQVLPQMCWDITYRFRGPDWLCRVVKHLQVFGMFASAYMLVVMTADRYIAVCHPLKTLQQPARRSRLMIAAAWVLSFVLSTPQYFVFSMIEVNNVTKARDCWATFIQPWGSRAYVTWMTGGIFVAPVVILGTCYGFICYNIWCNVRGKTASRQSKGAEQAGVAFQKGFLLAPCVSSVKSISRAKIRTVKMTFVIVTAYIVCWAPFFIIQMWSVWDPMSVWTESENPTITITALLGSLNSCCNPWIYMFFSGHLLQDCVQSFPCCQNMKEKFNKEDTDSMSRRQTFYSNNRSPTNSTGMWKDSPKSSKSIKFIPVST

CO[C@H]1/C=C/O[C@@]2(C)Oc3c(C)c(O)c4c(O)c(c(/C=N/N5CCN(C)CC5)c(O)c4c3C2=O)NC(=O)/C(C)=C\C=C\[C@H](C)[C@H](O)[C@@H](C)[C@@H](O)[C@@H](C)[C@H](OC(C)=O)[C@@H]1C [RIFAMPIN]
Not Active: IC50 [1] | Ki [1] | IC50 [2] | IC50 [3] | IC50 [4] | IC50 [5] | IC50 [6] | IC50 [7] | IC50 [8]

Nc1nc2ccc(OC(F)(F)F)cc2s1 [RILUZOLE]
Not Active: IC50 [1] | Ki [1] | IC50 [2] | IC50 [3] | IC50 [4] | IC50 [5] | IC50 [6] | IC50 [7] | Ki [8]

C=CCC1(C(C)CCC)C(=O)NC(=O)NC1=O (stereo not given) [SECOBARBITAL]
Not Active: IC50 [1] | Ki [1] | IC50 [2] | IC50 [3] | IC50 [4] | IC50 [5] | IC50 [6] | IC50 [7] | IC50 [8]

C[C@@H]1CN(c2c(F)c(N)c3c(=O)c(C(=O)O)cn(C4CC4)c3c2F)C[C@H](C)N1 [SPARFLOXACIN]
Not Active: IC50 [1] | Ki [1] | IC50 [2] | IC50 [3] | IC50 [4] | IC50 [5] | IC50 [6] | IC50 [7] | IC50 [8]

Cc1noc(NS(=O)(=O)c2ccc(N)cc2)c1C [SULFISOXAZOLE]
Not Active: IC50 [1] | Ki [1] | IC50 [2] | IC50 [3] | IC50 [4] | IC50 [5] | IC50 [6] | IC50 [7] | IC50 [8]

CSc1ccc(/C=C2/C(C)=C(CC(=O)O)c3cc(F)ccc32)cc1 [SULINDAC SULFIDE]
Not Active: IC50 [1] | Ki [1] | IC50 [2] | IC50 [3] | IC50 [4] | IC50 [5] | IC50 [6] | IC50 [7] | IC50 [8]

Nc1c2c(nc3ccccc13)CCCC2 [TACRINE]
Not Active: IC50 [1] | Ki [1] | IC50 [2] | IC50 [3] | IC50 [4] | IC50 [5] | IC50 [6] | IC50 [7] | IC50 [8]

Nc1nc2nc[nH]c2c(=S)[nH]1 [THIOGUANINE]
Not Active: IC50 [1] | Ki [1] | IC50 [2] | IC50 [3] | IC50 [4] | IC50 [5] | IC50 [6] | IC50 [7] | IC50 [8]

Cc1cccc(N(C)C(=S)Oc2ccc3ccccc3c2)c1 [TOLNAFTATE]
Not Active: IC50 [1] | Ki [1] | IC50 [2] | IC50 [3] | IC50 [4] | IC50 [5] | IC50 [6] | IC50 [7] | IC50 [8]

NC[C@H]1CC[C@H](C(=O)O)CC1 [TRANEXAMIC ACID]
Not Active: IC50 [1] | Ki [1] | IC50 [2] | IC50 [3] | IC50 [4] | IC50 [5] | IC50 [6] | IC50 [7] | IC50 [8]

CC1(C)O[C@@H]2C[C@H]3[C@@H]4CCC5=CC(=O)C=C[C@]5(C)[C@@]4(F)[C@@H](O)C[C@]3(C)[C@]2(C(=O)CO)O1 [TRIAMCINOLONE ACETONIDE]
Not Active: IC50 [1] | Ki [1] | IC50 [2] | IC50 [3] | IC50 [4] | IC50 [5] | IC50 [6] | IC50 [7] | IC50 [8]

NS(=O)(=O)c1cc2c(cc1Cl)NC(C(Cl)Cl)NS2(=O)=O (stereo not given) [TRICHLORMETHIAZIDE]
Not Active: IC50 [1] | Ki [1] | IC50 [2] | IC50 [3] | IC50 [4] | IC50 [5] | IC50 [6] | IC50 [7] | IC50 [8]

Cc1c(C)c2c(c(C)c1O)CCC(C)(COc1ccc(CC3SC(=O)NC3=O)cc1)O2 (stereo not given) [TROGLITAZONE]
Not Active: IC50 [1] | Ki [1] | IC50 [2] | IC50 [3] | IC50 [4] | IC50 [5] | IC50 [6] | IC50 [7] | IC50 [8]

N[C@@H]1[C@H]2CN(c3nc4c(cc3F)c(=O)c(C(=O)O)cn4-c3ccc(F)cc3F)C[C@@H]12 [TROVAFLOXACIN]
Not Active: IC50 [1] | Ki [1] | IC50 [2] | IC50 [3] | IC50 [4] | IC50 [5] | IC50 [6] | IC50 [7] | IC50 [8]

N#CC(C#N)=Cc1ccc(O)c(O)c1 [TYRPHOSTIN 23]
Not Active: IC50 [1] | Ki [1] | IC50 [2] | IC50 [3] | IC50 [4] | IC50 [5] | IC50 [6] | IC50 [7] | IC50 [8]

CC[C@]1(O)C[C@H]2CN(CCc3c([nH]c4ccccc34)[C@@](C(=O)OC)(c3cc4c(cc3OC)N(C=O)[C@H]3[C@@](O)(C(=O)OC)[C@H](OC(C)=O)[C@]5(CC)C=CCN6CC[C@]43[C@@H]65)C2)C1 [VINCRISTINE]
Not Active: IC50 [1] | Ki [1] | IC50 [2] | IC50 [3] | IC50 [4] | IC50 [5] | IC50 [6] | IC50 [7] | IC50 [8]

SODIUM NITROPRUSSIDE
Not Active: IC50 [1] | Ki [1] | IC50 [2] | Ki [2] | IC50 [3] | Ki [3] | IC50 [4] | Ki [4] | IC50 [5] | Ki [5] | IC50 [6] | Ki [6] | IC50 [7] | Ki [7] | IC50 [8] | Ki [8]
